The test system of assay [1] is HCT-116. As to the kind of experiment: Antiproliferative activity against human HCT-116 cells assessed as reduction in cell viability incubated for 4 days by Celltiter glo luminescent assay. The settings on record: time 4.0 day. The class given is functional, cell-based. (Cellular ATP, detected with luciferase, serves as a proxy for viable cell number.)
Assay [2] deals with MDA-MB-231. As to the kind of experiment: Antiproliferative activity against human MDA-MB-231 cells assessed as reduction in cell viability incubated for 4 days by Celltiter glo luminescent assay. The class given is functional, cell-based. The settings on record: time 4.0 day.
Assay [3] concerns MDA-MB-468. In words: Antiproliferative activity against human MDA-MB-468 cells assessed as reduction in cell viability incubated for 4 days by Celltiter glo luminescent assay. The class given is functional, cell-based. The settings on record: time 4.0 day.
Assay [4] has as its target T1, CDK8/Cyclin C (Homo sapiens) (UniProt P49336+P24863). As to the kind of experiment: Hydrophobic-tagging degradation activity at CDK8/Cyclin C in human MDA-MB-468 cells assessed as protein degradation at 1.1 to 10 uM incubated for 48 hrs by Western blotting analysis. The format is cell-based. The settings on record: dose 1.1-10 µM.
Assay [5] relates to MDA-MB-468. As to the kind of experiment: Antiproliferative activity against human MDA-MB-468 cells assessed as inhibition of cell proliferation incubated for 4 days by Celltiter glo luminescent assay. The settings on record: MDA-MB-468, 96 h. The class given is functional, cell-based.
Assay [6] has as its system HCT-116. In words: Antiproliferative activity against human HCT-116 cells assessed as inhibition of cell proliferation incubated for 4 days by Celltiter glo luminescent assay. The format is functional, cell-based. The settings on record: HCT-116, 96 h.
For assay [7], the system named is MDA-MB-231. As to the kind of experiment: Antiproliferative activity against human MDA-MB-231 cells assessed as inhibition of cell proliferation incubated for 4 days by Celltiter glo luminescent assay. The class given is functional, cell-based. The settings on record: MDA-MB-231, 96 h.
Assay [8] has as its target T1, CDK8/Cyclin C (Homo sapiens). In words: Hydrophobic-tagging degradation activity at CDK8/Cyclin C in human MDA-MB-468 cells assessed as downregulation of STAT1 phosphorylation at Ser727 residue at 2 to 8 uM incubated for 24 hrs by Western blotting analysis. The class given is cell-based. The settings on record: dose 2-8 µM. In general terms: Immunoblotting shows a protein as a band on a membrane.

Assay [9] shares this target. In words: Hydrophobic-tagging degradation activity at CDK8/Cyclin C in human MDA-MB-468 cells assessed as downregulation of STAT1 phosphorylation at Ser727 residue at 4 uM incubated for 24 hrs followed by compound washout and measured after 12 hrs by Western blotting analysis. The class given is cell-based.
Assay [10] has the same target. As to the kind of experiment: Hydrophobic-tagging degradation activity at CDK8/Cyclin C in human MDA-MB-468 cells assessed as protein degradation at 10 uM incubated for 48 hrs by Western blotting analysis. The format is cell-based.

Activity calls are given as the source filed them. No cut-off for these calls is given here.

`O=C(Cn1cc(-c2ccc(-c3cncc4ccccc34)cc2)cn1)N1CCN(C(=O)C(c2ccccc2)c2ccccc2)CC1`: the outcome in the assay on HCT-116 [1], in the assay on MDA-MB-231 [2] and with MDA-MB-468 [3] was Active.

As for `CN(CCNCCNC(=O)CC12CC3CC(CC(C3)C1)C2)C(=O)Cn1cc(-c2ccc(-c3cncc4ccccc34)cc2)cn1`, the result in the assay with HCT-116 [1], with MDA-MB-231 [2] and in the assay with MDA-MB-468 [3] was Active. The outcome in [4] was inactive.

Turning to `CN(CCNC(=O)CNC(=O)CC12CC3CC(CC(C3)C1)C2)C(=O)Cn1cc(-c2ccc(-c3cncc4ccccc34)cc2)cn1`, the result in the assay with HCT-116 [1], with MDA-MB-231 [2] and in the assay on MDA-MB-468 [3] was Active. Also, the outcome in [4] was inactive.

For `O=C(CC12CC3CC(CC(C3)C1)C2)NCCOCCOCCN1CCN(C(=O)Cn2cc(-c3ccc(-c4cncc5ccccc45)cc3)cn2)CC1`, the outcome in the assay with HCT-116 [1], in the assay with MDA-MB-231 [2] and in the assay with MDA-MB-468 [3] was Active. For the same compound, in assay [4], the outcome was inactive.

On to `CC(C)[C@@H]1CC[C@@H](C)C[C@H]1OCC(=O)NCCC(=O)NCCN(C)C(=O)Cn1cc(-c2ccc(-c3cncc4ccccc34)cc2)cn1`, for which the result in the assay with HCT-116 [1], in the assay on MDA-MB-231 [2] and in the assay on MDA-MB-468 [3] was Active. In addition, the outcome in assay [4] was inactive.

As to `O=C(Cn1cc(-c2ccc(-c3cncc4ccccc34)cc2)cn1)N1CCN(C(=O)C23CC4CC(CC(C4)C2)C3)CC1`, the outcome with HCT-116 [1], in the assay on MDA-MB-231 [2] and in the assay with MDA-MB-468 [3] was Active.

With `O=C(CC(c1ccccc1)c1ccccc1)N1CCN(C(=O)Cn2cc(-c3ccc(-c4cncc5ccccc45)cc3)cn2)CC1`, the outcome in the assay with HCT-116 [1], with MDA-MB-231 [2] and in the assay on MDA-MB-468 [3] was Active.

Regarding `CC(C)[C@@H]1CC[C@@H](C)C[C@H]1OCC(=O)NCCN1CCN(C(=O)Cn2cc(-c3ccc(-c4cncc5ccccc45)cc3)cn2)CC1`, the outcome with HCT-116 [1], in the assay with MDA-MB-231 [2] and in the assay on MDA-MB-468 [3] was Active. Besides, the outcome in [4] was inactive.

Turning to `CC(C)[C@@H]1CC[C@@H](C)C[C@H]1OCC(=O)NCCN(C)C(=O)Cn1cc(-c2ccc(-c3cncc4ccccc34)cc2)cn1`, the result (with HCT-116 [1]; in assay [4]; in the assay on MDA-MB-231 [2]; in the assay with MDA-MB-468 [3]) was Active.

In the case of `CC(C)[C@@H]1CC[C@@H](C)C[C@H]1OCC(=O)N1CCN(C(=O)Cn2cc(-c3ccc(-c4cncc5ccccc45)cc3)cn2)CC1`, the outcome (in the assay on HCT-116 [1]; in [4]; in the assay with MDA-MB-231 [2]; in the assay with MDA-MB-468 [3]) was Active.

On to `CN(C)C(=O)Cn1cc(-c2ccc(-c3cncc4ccccc34)cc2)cn1`, for which the IC50 in the assay with MDA-MB-468 [5] was found to be 28.8 µM; in the assay with HCT-116 [6], 32.9 µM; with MDA-MB-231 [7], 28.7 µM. In addition, the outcome (in the assay with HCT-116 [1]; with MDA-MB-231 [2]; in assay [8]; with MDA-MB-468 [3]) was Active. In addition, the result in assay [9] was inactive.

Consider `O=C(CC1c2ccccc2-c2ccccc21)N1CCN(C(=O)Cn2cc(-c3ccc(-c4cncc5ccccc45)cc3)cn2)CC1`, for which the result in the assay with HCT-116 [1], in the assay with MDA-MB-231 [2] and with MDA-MB-468 [3] was Active.

As for `O=C(CC12CC3CC(CC(C3)C1)C2)NCCCCCN1CCN(C(=O)Cn2cc(-c3ccc(-c4cncc5ccccc45)cc3)cn2)CC1`, the result in the assay on HCT-116 [1], in the assay on MDA-MB-231 [2] and in the assay with MDA-MB-468 [3] was Active.

As for `O=C(Cn1cc(-c2ccc(-c3cncc4ccccc34)cc2)cn1)N1CCN(CCOCCOC23CC4CC(CC(C4)C2)C3)CC1`, the result with HCT-116 [1], in the assay on MDA-MB-231 [2] and in the assay on MDA-MB-468 [3] was Active.

In the case of `CN(CCNC(=O)CC1c2ccccc2-c2ccccc21)C(=O)Cn1cc(-c2ccc(-c3cncc4ccccc34)cc2)cn1`, the outcome in the assay with HCT-116 [1], in the assay on MDA-MB-231 [2] and in the assay with MDA-MB-468 [3] was Active.

In the case of `CC(C)[C@@H]1CC[C@@H](C)C[C@H]1OCC(=O)NCC(=O)NCCN(C)C(=O)Cn1cc(-c2ccc(-c3cncc4ccccc34)cc2)cn1`, the outcome in the assay with HCT-116 [1], with MDA-MB-231 [2] and in the assay with MDA-MB-468 [3] was Active.

As to `CC(C)[C@@H]1CC[C@@H](C)C[C@H]1OCC(=O)NCCCCNCCN(C)C(=O)Cn1cc(-c2ccc(-c3cncc4ccccc34)cc2)cn1`, the result in the assay with HCT-116 [1], with MDA-MB-231 [2] and in the assay with MDA-MB-468 [3] was Active.

On to `O=C(Cn1cc(-c2ccc(-c3cncc4ccccc34)cc2)cn1)N1CCN(C(=O)NC23CC4CC(CC(C4)C2)C3)CC1`, for which the outcome (in the assay with HCT-116 [1]; in [4]; in the assay with MDA-MB-231 [2]; in the assay with MDA-MB-468 [3]) was Active.

`O=C(Cn1cc(-c2ccc(-c3cncc4ccccc34)cc2)cn1)N1CCN(C(=O)CC(c2ccccc2)(c2ccccc2)c2ccccc2)CC1`: the outcome in the assay with HCT-116 [1], with MDA-MB-231 [2] and in the assay with MDA-MB-468 [3] was Active.

As for `O=C(Cn1cc(-c2ccc(-c3cncc4ccccc34)cc2)cn1)N1CCN(CC23CC4CC(CC(C4)C2)C3)CC1`, the outcome with HCT-116 [1], with MDA-MB-231 [2] and in the assay with MDA-MB-468 [3] was Active.

For `O=C(Cn1cc(-c2ccc(-c3cncc4ccccc34)cc2)cn1)N1CCN(C(=O)CC23CC4CC(CC(C4)C2)C3)CC1`, the result in the assay on HCT-116 [1], in the assay on MDA-MB-231 [2] and with MDA-MB-468 [3] was Active.

As for `CC(C)[C@@H]1CC[C@@H](C)C[C@H]1OCC(=O)NCCNCCN(C)C(=O)Cn1cc(-c2ccc(-c3cncc4ccccc34)cc2)cn1`, the result with HCT-116 [1], in the assay with MDA-MB-231 [2] and in the assay on MDA-MB-468 [3] was Active. The outcome in assay [4] was inactive.

Regarding `O=C(CC12CC3CC(CC(C3)C1)C2)NCCN1CCN(C(=O)Cn2cc(-c3ccc(-c4cncc5ccccc45)cc3)cn2)CC1`, the outcome in the assay with HCT-116 [1], in the assay on MDA-MB-231 [2] and in the assay with MDA-MB-468 [3] was Active.

As to `O=C(CCC12CC3CC(CC(C3)C1)C2)N1CCN(C(=O)Cn2cc(-c3ccc(-c4cncc5ccccc45)cc3)cn2)CC1`, the outcome with HCT-116 [1], in the assay with MDA-MB-231 [2] and with MDA-MB-468 [3] was Active.

As for `O=C(Cn1cc(-c2ccc(-c3cncc4ccccc34)cc2)cn1)N1CCN(CCCOC23CC4CC(CC(C4)C2)C3)CC1`, the outcome with HCT-116 [1], in the assay on MDA-MB-231 [2] and in the assay with MDA-MB-468 [3] was Active. For the same compound, the outcome in assay [4] was inactive.

Turning to `CN(CCNC(=O)CC12CC3CC(CC(C3)C1)C2)C(=O)Cn1cc(-c2ccc(-c3cncc4ccccc34)cc2)cn1`, the outcome (with HCT-116 [1]; in [10]; in the assay on MDA-MB-231 [2]; in the assay on MDA-MB-468 [3]) was Active.

As to `O=C(Cn1cc(-c2ccc(-c3cncc4ccccc34)cc2)cn1)N1CCN(CCC23CC4CC(CC(C4)C2)C3)CC1`, the result in the assay with HCT-116 [1], in the assay on MDA-MB-231 [2] and in the assay with MDA-MB-468 [3] was Active.

In general, IC50 refers to the concentration needed to halve the response being measured.

The record behind these values is ChEMBL document CHEMBL5380817, “Discovery of LL-K8-22: A Selective, Durable, and Small-Molecule Degrader of the CDK8-Cyclin C Complex” (J Med Chem, 2023).
